Values after ≈ are worked out from the molar mass of the structure shown. Like-named read-outs stand apart in the source and are kept apart here.
Tests used:
Test in all cases: microbe, parasite or virus in culture
Set-up in all cases: species or system whole yeast cells; micro-culture broth dilution MIC in YES at 30 C, turbidity, complete growth inhibition
[1] = tested on: C. albicans wild-type; conditions: Candida albicans, read-out: MIC
Method: (§1) Standard YEPD (Yeast Extract, Peptone, Dextrose) ([Sherman, 1990]), YEPD+S (YEPD with 1.2M sorbitol), YES (Yeast Extract, Dextrose and Supplements of Adenine, Histidine, Leucine, Uracil and Lysine) ([Alfa et al., 1993]) and YES+S (YES with 1.2 M sorbitol) ([Ribas et al., 1991]; [Ishiguro et al., 1997]), media were used for determination of MIC values of the tested compounds. A stock solution of 10 mg/ml of each tested compounds was prepared in DMSO and serial dilutions in DMSO were prepared. The final concentration of DMSO was 2% in the YEPD medium. […] The serial dilutions of compounds were dispensed into test tubes with 1 ml of YEPD or YEPD+S to make final concentrations of 200, 100, 50, 25, 12.5, 6.26, 3.125, 1.6, 0.8 and 0.4 μg/ml. The tested yeast strains were previously grown in YEPD, YEPD+S, YES or YES+S agar plates at 30°C for 48 h. Micro-culture assays of large numbers of samples were analyzed as described) ([Martins et al., 2011]). Essentially early log-phase cells were grown in YEPD, YEPD+S, YES or YES+S (1.2 M sorbitol) medium at 30°C, and diluted to cell density of 4 X 10^6 cells/ml in YEPD, YEPD+S, YES or YES+S medium and aliquots of 100 μl were dispensed into each small test tube (3 ml test tube size). Then, another 100 μl of YEPD, YEPD+S, YES or YES+S with the corresponding dilution of each compound at 2X concentration (4% DMSO) was added. The final volume was 200 μl, with the cells diluted to of 2 X 10^6 cells/ml and each compound diluted to 1X final concentration, containing increasing concentrations of antifungal (0, 1, 2, 5, 10, 20, 50, 100 and 200 μg/ml) or an equivalent volume of solvent (2% DMSO). The cells were grown at 30°C in an orbital roller and turbidity was analyzed after 24 and 48 h of incubation. The MIC was determined as the minimal concentration of tested compound that produced complete cell growth inhibition and kept the medium clear. The MIC values were calculated from at least three independent experiments. Next, the first generation of isochromanones (1E-16E) was also screened in YES medium (Table 5) and exerted a weaker antifungal potency than in YEPD medium and also than the second family of isochromanones in YES medium (17E-30E) (Table 6). The strains are partly different from the previously mentioned ones (Tables 5, 6) analyzing two wild type C. albicans strains because they behaved similarly in YEPD. It is remarkable that there was no effect against either the C. albicans, the S. cerevisiae, or the S. pombe wild-type strains, except with 30E.

[2] = tested on: T1, S. cerevisiae wild-type CVX12-3A; conditions: Saccharomyces cerevisiae, read-out: MIC
T1 construct: CVX12-3A
Method: as §1

[3] = tested on: T2, S. pombe wild-type 972 h-; conditions: Schizosaccharomyces pombe, read-out: MIC
T2 construct: 972 h-
Method: as §1

[4] = tested on: C. albicans wild-type; conditions: Candida albicans, read-out: MIC; remark: listed apart in the source
Method: as §1

Row | SMILES | MIC [1] [µg/mL] | MIC [2] [µg/mL] | MIC [3] [µg/mL] | MIC [4] [µg/mL]
1 | Cc1cc(C)c(/C=C2/C(=O)OCc3ccccc32)c(C)c1 [18E] | > 200 | > 200 | > 200 | > 200
2 | Cc1ccccc1/C=C1/C(=O)OCc2ccccc21 [20E] | > 200 | > 200 | > 200 | > 200
3 | COc1cccc(/C=C2/C(=O)OCc3ccccc32)c1 [22E] | > 200 | > 200 | > 200 | > 200
4 | O=C1OCc2ccccc2/C1=C\c1ccc(Cl)cc1 [23E] | > 200 | > 200 | > 200 | > 200
5 | O=C1OCc2ccccc2/C1=C\c1cccc([N+](=O)[O-])c1 [24E] | > 200 | > 200 | > 200 | > 200
6 | O=C1OCc2ccccc2/C1=C/c1cccc([N+](=O)[O-])c1 [24Z] | > 200 | > 200 | > 200 | > 200
7 | COc1cc(/C=C2/C(=O)OCc3ccccc32)cc(OC)c1OC [25E] | > 200 | > 200 | > 200 | > 200
8 | COc1ccc(/C=C2/C(=O)OCc3ccccc32)cc1OC [26E, E-4-[(3′,4′-Dimethoxyphenyl)Methylene]-3-Isochromanone] | > 200 | > 200 | > 200 | > 200
9 | O=C1OCc2ccccc2/C1=C\c1cccc(Cl)c1 [28E, E-4-[(3′-Chlorophenyl)Methylene]-3-Isochromanone] | > 200 | > 200 | > 200 | > 200
10 | O=C1OCc2ccccc2/C1=C/c1cccc(Cl)c1 [28Z, Z-4-[(3′-chlorophenyl)methylene]-3-isochromanone] | > 200 | > 200 | > 200 | > 200
11 | O=C1OCc2ccccc2/C1=C\c1ccc(O)cc1 [29E, E-4-[(4′-Hydroxyphenyl)Methylene]-3-Isochromanone] | > 200 | > 200 | > 200 | > 200
12 | COc1cc(/C=C2/C(=O)OCc3ccccc32)ccc1O [30E, E-4-[(4′-Hydroxy-3′-Methoxyphenyl)Methylene]-3-Isochromanone] | > 200 | 150 (≈ 531 µM) | 150 (≈ 531 µM) | > 200

Reference: article PMC6689975, “Novel Cell Wall Antifungals Reveal a Special Synergistic Activity in pbr1 Mutants Resistant to the Glucan Synthesis Antifungals Papulacandins and Echinocandins” (Frontiers in Microbiology, 2019)
